Several values for one entry are separate records, joined by “and”; a condition that tells them apart may be missing. Equal entries are not always repeated. Inconclusive results and toxic doses are left out.

The assay relates to P388 leukemia ip, CD2F1 mice, survival T/C. As to the kind of experiment: NCI In Vivo Anticancer Drug Screen. Data for tumor model P388 Leukemia (intraperitoneal) in CD2F1 (CDF1) mice. The note with it: endpoint: median survival time, higher = longer survival. An outline of the steps:
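Mice carrying the transplanted tumor received test compound or vehicle. Survival was recorded in each group, and the value is the treated-group measurement divided by that of the vehicle-treated control group.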

Where [1] appears, read: dose: 60.0 mg/kg/injection, schedule: Q01DX005 (ip), vehicle: saline with Tween-80.
Where [2] appears, read: dose: 120.0 mg/kg/injection, schedule: Q01DX005 (ip), vehicle: saline with Tween-80.
The mark [3] stands for this setting: dose: 240.0 mg/kg/injection, schedule: Q01DX005 (ip), vehicle: saline with Tween-80.
Setting [4] is: dose: 50.0 mg/kg/injection, schedule: Q01DX005 (ip), vehicle: saline with Tween-80.
Where [5] appears, read: dose: 100.0 mg/kg/injection, schedule: Q01DX005 (ip), vehicle: saline with Tween-80.
[6] abbreviates: dose: 200.0 mg/kg/injection, schedule: Q01DX005 (ip), vehicle: saline with Tween-80.
[7] abbreviates: dose: 50.0 mg/kg/injection, schedule: Q01DX005 (ip), vehicle: Klucel (hydroxypropylcellulose) (HPC).
Where [8] appears, read: dose: 100.0 mg/kg/injection, schedule: Q01DX005 (ip), vehicle: Klucel (hydroxypropylcellulose) (HPC).
[9] abbreviates: dose: 200.0 mg/kg/injection, schedule: Q01DX005 (ip), vehicle: Klucel (hydroxypropylcellulose) (HPC).
The mark [10] stands for this setting: dose: 50.0 mg/kg/injection, schedule: Q01DX009 (ip), vehicle: saline with Tween-80.
Where [11] appears, read: dose: 50.0 mg/kg/injection, schedule: Q01DX009 (ip), vehicle: Klucel (hydroxypropylcellulose) (HPC).
[12] abbreviates: dose: 200.0 mg/kg/injection, schedule: Q01DX009 (ip), vehicle: Klucel (hydroxypropylcellulose) (HPC).

In the case of `Cc1oc2ccccc2c(=O)c1Cn1nnc2ccccc21`, the T/C runs as follows: under setting [1], 103 % of control; under setting [2], 103 % of control; under setting [3], 94 % of control.
On to `O=[N+]([O-])c1ccc(Sc2ncccn2)cc1`, for which the T/C reads like this: (dose: 25.0 mg/kg/injection, schedule: Q04DX002 (ip), vehicle: suspension in saline) 108 % of control; (dose: 50.0 mg/kg/injection, schedule: Q04DX002 (ip), vehicle: suspension in saline) 94 % of control; (dose: 100.0 mg/kg/injection, schedule: Q04DX002 (ip), vehicle: suspension in saline) 101 % of control; (dose: 200.0 mg/kg/injection, schedule: Q04DX002 (ip), vehicle: suspension in saline) 100 % of control; (dose: 400.0 mg/kg/injection, schedule: Q04DX002 (ip), vehicle: suspension in saline) 96 % of control.
Regarding `N#CC(c1c(Cl)cccc1N1CCCCC1)N1CCCCC1` (stereo unspecified), the T/C is, setting by setting: under setting [4], 108 % of control; under setting [5], 104 % of control; under setting [6], 100 % of control.
With `O=S(=O)(O/C1=C/CCCCCC1)C(F)(F)F`, the T/C by setting is: (dose: 50.0 mg/kg/injection, schedule: Q01DX009 (ip), vehicle: olive oil, sesame oil, peanut oil) 97 % of control; (dose: 100.0 mg/kg/injection, schedule: Q01DX009 (ip), vehicle: olive oil, sesame oil, peanut oil) 113 % of control; (dose: 200.0 mg/kg/injection, schedule: Q01DX009 (ip), vehicle: olive oil, sesame oil, peanut oil) 103 % of control.
For the molecule `O=C(O)c1cccnc1C(=O)O`, the T/C runs as follows: (dose: 50.0 mg/kg/injection, schedule: Q01DX009 (ip), vehicle: saline) 105 % of control; (dose: 100.0 mg/kg/injection, schedule: Q01DX009 (ip), vehicle: saline) 96 % of control and 100 % of control and 111 % of control; (dose: 200.0 mg/kg/injection, schedule: Q01DX009 (ip), vehicle: saline) 86 % of control and 102 % of control and 97 % of control; (dose: 400.0 mg/kg/injection, schedule: Q01DX009 (ip), vehicle: saline) 100 % of control and 90 % of control.
With `[Br][Sn]([Br])([CH2][Sn]([Br])([Br])[c]1ccccc1)[c]1ccccc1`, the T/C under setting [7] is 97 % of control, the T/C under setting [8] is 99 % of control and the T/C under setting [9] is 89 % of control.
For `O=C(NC(Cc1ccc(I)cc1)C(=O)O)c1ccc(I)cc1` (stereo unspecified), the T/C under setting [7] was 96 % of control, the T/C under setting [8] is 104 % of control and the T/C under setting [9] was 104 % of control.
Regarding `CCN(CC)C(=NC(C)C)c1ccccc1`, the T/C by setting is: (dose: 12.5 mg/kg/injection, schedule: Q01DX009 (ip), vehicle: saline) 98 % of control; (dose: 25.0 mg/kg/injection, schedule: Q01DX009 (ip), vehicle: saline) 94 % of control.
For the molecule `CC(=O)Nc1cc2c(cc1Br)-c1ccccc1C2O` (stereo unspecified), the T/C reads like this: (dose: 0.63 mg/kg/injection, schedule: Q01DX009 (ip), vehicle: saline with Tween-80) 100 % of control; (dose: 1.25 mg/kg/injection, schedule: Q01DX009 (ip), vehicle: saline with Tween-80) 109 % of control; (dose: 2.5 mg/kg/injection, schedule: Q01DX009 (ip), vehicle: saline with Tween-80) 109 % of control; (dose: 5.0 mg/kg/injection, schedule: Q04DX003 (ip), vehicle: saline with Tween-80) 90 % of control; (dose: 10.0 mg/kg/injection, schedule: Q04DX003 (ip), vehicle: saline with Tween-80) 104 % of control; (dose: 20.0 mg/kg/injection, schedule: Q01DX009 (ip), vehicle: saline with Tween-80) 90 % of control. Further, for the setting “dose: 20.0 mg/kg/injection, schedule: Q04DX003 (ip), vehicle: saline with Tween-80”, the T/C is 100 % of control.
With `O=C(CC(C(=O)O)N1CCNCC1)c1ccc(Cl)cc1` (stereo unspecified), the T/C runs as follows: (dose: 50.0 mg/kg/injection, schedule: Q01DX005 (ip), vehicle: saline) 100 % of control; (dose: 100.0 mg/kg/injection, schedule: Q01DX005 (ip), vehicle: saline) 107 % of control; (dose: 200.0 mg/kg/injection, schedule: Q01DX005 (ip), vehicle: saline) 101 % of control.
As for `CC(=O)Nc1cc2cc(N=CN(C)C)ccc2oc1=O`, the T/C is, setting by setting: (dose: 60.0 mg/kg/injection, schedule: Q01DX005 (ip), vehicle: Klucel + Tween-80) 99 % of control; (dose: 120.0 mg/kg/injection, schedule: Q01DX005 (ip), vehicle: Klucel + Tween-80) 104 % of control.
Turning to `CN(C)C=Nc1ccc(Cl)cc1`, the T/C is, setting by setting: (dose: 25.0 mg/kg/injection, schedule: Q01DX009 (ip), vehicle: saline with Tween-80) 99 % of control; under setting [10], 105 % of control.
`NC(=O)N/N=C1/CCC(OCc2ccccc2)CC1CC(=O)O` (stereo unspecified): the T/C is, setting by setting: under setting [4], 102 % of control; under setting [5], 105 % of control; under setting [6], 96 % of control.
For the molecule `C=C[C@]1(C)C[C@@H](OC(=O)CO)[C@@]2(C)[C@H](C)CC[C@]3(CCC(=O)[C@H]32)[C@@H](C)[C@@H]1O`, the T/C runs as follows: (dose: 12.5 mg/kg/injection, schedule: Q01DX009 (ip), vehicle: Klucel (hydroxypropylcellulose) (HPC)) 101 % of control; (dose: 25.0 mg/kg/injection, schedule: Q01DX009 (ip), vehicle: Klucel (hydroxypropylcellulose) (HPC)) 97 % of control; under setting [11], 101 % of control and 108 % of control and 94 % of control; (dose: 150.0 mg/kg/injection, schedule: Q01DX009 (ip), vehicle: Klucel (hydroxypropylcellulose) (HPC)) 100 % of control and 95 % of control; under setting [12], 104 % of control and 107 % of control; (dose: 400.0 mg/kg/injection, schedule: Q01DX009 (ip), vehicle: Klucel (hydroxypropylcellulose) (HPC)) 107 % of control.
Consider `NC(=O)c1nn(C2OC(CO)C(O)C2O)c2ncnc(N)c12` (stereo unspecified), for which the T/C (dose: 3.0 mg/kg/injection, schedule: Q01DX009 (ip), vehicle: Klucel (hydroxypropylcellulose) (HPC)) is 152 % of control and the T/C (dose: 6.0 mg/kg/injection, schedule: Q01DX009 (ip), vehicle: Klucel (hydroxypropylcellulose) (HPC)) is 190 % of control.
`c1cnc2nc3c4ccccc4c4ccccc4c3nc2c1`: the T/C is 104 % of control and 94 % of control under setting [10]; 104 % of control and 122 % of control and 93 % of control (dose: 100.0 mg/kg/injection, schedule: Q01DX009 (ip), vehicle: saline with Tween-80); 101 % of control and 110 % of control and 86 % of control (dose: 200.0 mg/kg/injection, schedule: Q01DX009 (ip), vehicle: saline with Tween-80).
On to `CCCCC1C2C(S(=O)(=O)c3ccccc3)=NOC2C=CN1C(C)=O` (stereo unspecified), for which the T/C is 105 % of control and 109 % of control (dose: 15.0 mg/kg/injection, schedule: Q01DX005 (ip), vehicle: saline with Tween-80); 102 % of control and 93 % of control and 98 % of control (dose: 30.0 mg/kg/injection, schedule: Q01DX005 (ip), vehicle: saline with Tween-80).
Consider `O=C(O)c1ccc([N+](=O)[O-])cc1O.O=C(O)c1ccc([N+](=O)[O-])cc1O.[Cu]`, for which the T/C is, setting by setting: (dose: 6.25 mg/kg/injection, schedule: Q01DX001 (ip), vehicle: saline with Tween-80) 100 % of control; (dose: 12.5 mg/kg/injection, schedule: Q01DX001 (ip), vehicle: saline with Tween-80) 103 % of control; (dose: 25.0 mg/kg/injection, schedule: Q01DX001 (ip), vehicle: saline with Tween-80) 97 % of control.
`CC1(C)Cc2nc3ccccc3nc2-c2ccccc21`: the T/C under setting [4] was 101 % of control, the T/C under setting [5] was 98 % of control and the T/C under setting [6] is 100 % of control.
With `CCCCCCCCCCCCCCCCCN1CCS(=O)(=O)CC1`, the T/C is 100 % of control under setting [11]; 94 % of control (dose: 100.0 mg/kg/injection, schedule: Q01DX009 (ip), vehicle: Klucel (hydroxypropylcellulose) (HPC)); 88 % of control under setting [12].
On to `COc1cccc2c1C(=O)c1c(O)c3c(c(O)c1C2=O)CC(O)(c1cscn1)CC3OC1CC(N)C(O)C(C)O1` (stereo unspecified), for which the T/C by setting is: (dose: 25.0 mg/kg/injection, schedule: Q04DX003 (ip), vehicle: water) 118 % of control; (dose: 50.0 mg/kg/injection, schedule: Q04DX003 (ip), vehicle: water) 157 % of control; (dose: 100.0 mg/kg/injection, schedule: Q04DX003 (ip), vehicle: water) 124 % of control.
Take `Cc1ccc2c(c1)sc(C)[n+]2CCO`: the T/C is 100 % of control under setting [1], 101 % of control under setting [2] and 101 % of control under setting [3].

The record behind these values is PubChem BioAssay AID330 (DTP/NCI, 2004).
